Laboratory results reported in patent publication US8546376B2, “Pharmaceutical compounds” (Almac Discovery Limited, priority 2009, dated 2013).
Where a name gives a salt, the structure may show the parent alone.

What was measured:
Format in all cases: biochemical
AKT2 = biological target: T1, AKT2 (Homo sapiens, UniProt P31751); experiment: AKT Kinase Assay (IMAP fluorescent polarisation) vs AKT2; details: activated AKT2, FAM Crosstide substrate
T1 construct: purchased SignalChem
Method: (§1) Testing of the compounds was performed using an AKT Kinase Assay:
(§2) Activated AKT isoforms 1, 2 and 3 were assayed utilising a 5′ FAM Crosstide (Seq. GRPRTSSFAEG-OH). The extent of kinase phosphorylation was determined by fluorescent polarisation using IMAP progressive binding reagent, which introduces binding beads which allow the reagent to specifically bind to phosphate residues via covalent co-ordination complex bonds.
(§3) iMAP binding solution stops Crosstide/kinase interaction and specifically binds phosphorylated substrates. The degree of phosphorylation is determined by fluorescent polarisation (excitation 485 nm; emission 528 nm) or the reduction in speed of rotation of the excited substrate.
(§4) The following materials were used in the assay: • a) Activated AKT isoforms (SignalChem.) dissolved in Complete Reaction buffer at a pre-determined concentration selected so that the assay was carried out in the linear range. • b) AKT substrate peptide: FAM Crosstide (R7110) Molecular Devices, diluted in complete reaction buffer. • c) iMAP Progressive Screening Express Kit (R8127) Molecular Devices • d) Complete Reaction Buffer containing 0.1% BSA, 10 mM Tris-HCl, 10 mM MgCl2, 0.05% NaN3 and 0.01% phosphate free BSA, 1 mM DTT • e) Progressive Binding Solution containing 75% Buffer A, 25% Buffer B and low volume Binding Reagent which contains the binding entity for the assay • f) ATP diluted in complete reaction buffer • g) Black polystyrene 384 well assay plates (Nunc). • h) Biotek Synergy 4 Hybrid Plate reader.
(§5) 5 μl of test compound was dissolved in DMSO (Sigma Aldrich) and serially diluted in complete reaction buffer to give a fourteen point half log dose response and plated into 384 well black plates. The compound was incubated at room temperature with activated AKT isoform (5 μl) at the pre-determined concentration, for 45 minutes.
(§6) 2.5 μl of ATP solution mixed with 2.5 μl of AKT substrate peptide (FAM Crosstide (R7110) Molecular Devices) were dispensed into each well and the plate centrifuged at 1000 rpm for 20 seconds to ensure homogenous mixing of reagents. The reaction mix was incubated in the dark for one hour at room temperature.
(§7) The kinase reaction was stopped by the addition of Progressive Binding Solution and the mixture allowed to equilibrate for one hour in the dark, at room temperature.
(§8) The fluorescent polarisation generated in each well was determined using a […] Synergy 4 Hybrid plate reader. In brief, each reaction solution was excited at 485 nm with the emission measured at 528 nm in both the parallel and perpendicular pathway.
(§9) The polarisation value generated in each well was calculated by Gen5 software (Biotek) and the % inhibition of kinase activity compared to vehicle control was calculated via GraphPad Prism. IC50 values for each compound were calculated by non-linear regression analysis using Prism software.
(§10) All plates were internally controlled by two methods. Firstly, by calculating the signal:noise ratio; based on kinase polarisation without inhibitor and polarisation generated by complete reaction buffer in the absence of activated kinase. Secondly by determining IC50 values generated by known inhibitors of the AKT isoforms.

AKT3 = biological target: T2, AKT3 (Homo sapiens, UniProt Q9Y243); experiment: AKT Kinase Assay (IMAP fluorescent polarisation) vs AKT3; details: activated AKT3, FAM Crosstide substrate
T2 construct: purchased SignalChem
T2 sequence (Q9Y243 whole entry): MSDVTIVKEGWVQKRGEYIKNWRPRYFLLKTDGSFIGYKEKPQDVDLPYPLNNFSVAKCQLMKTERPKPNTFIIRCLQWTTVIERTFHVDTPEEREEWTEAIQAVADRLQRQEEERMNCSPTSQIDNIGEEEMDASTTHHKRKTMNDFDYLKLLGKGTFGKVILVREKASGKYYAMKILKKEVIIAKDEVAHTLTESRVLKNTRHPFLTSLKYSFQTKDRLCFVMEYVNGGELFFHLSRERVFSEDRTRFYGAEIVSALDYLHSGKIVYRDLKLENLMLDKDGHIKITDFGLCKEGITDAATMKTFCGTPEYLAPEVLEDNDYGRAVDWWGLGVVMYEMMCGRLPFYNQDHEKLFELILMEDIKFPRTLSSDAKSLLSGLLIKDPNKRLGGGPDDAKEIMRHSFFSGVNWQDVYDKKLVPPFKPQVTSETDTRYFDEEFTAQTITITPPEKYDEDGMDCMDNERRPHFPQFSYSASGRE
Method: as §1, §2, §3, §4, §5, §6, §7, §8, §9, §10

AKT1 = biological target: T3, AKT1 (Homo sapiens, UniProt P31749); experiment: AKT Kinase Assay (IMAP fluorescent polarisation) vs AKT1; details: activated AKT1, FAM Crosstide substrate
T3 construct: purchased SignalChem
T3 sequence (P31749 whole entry): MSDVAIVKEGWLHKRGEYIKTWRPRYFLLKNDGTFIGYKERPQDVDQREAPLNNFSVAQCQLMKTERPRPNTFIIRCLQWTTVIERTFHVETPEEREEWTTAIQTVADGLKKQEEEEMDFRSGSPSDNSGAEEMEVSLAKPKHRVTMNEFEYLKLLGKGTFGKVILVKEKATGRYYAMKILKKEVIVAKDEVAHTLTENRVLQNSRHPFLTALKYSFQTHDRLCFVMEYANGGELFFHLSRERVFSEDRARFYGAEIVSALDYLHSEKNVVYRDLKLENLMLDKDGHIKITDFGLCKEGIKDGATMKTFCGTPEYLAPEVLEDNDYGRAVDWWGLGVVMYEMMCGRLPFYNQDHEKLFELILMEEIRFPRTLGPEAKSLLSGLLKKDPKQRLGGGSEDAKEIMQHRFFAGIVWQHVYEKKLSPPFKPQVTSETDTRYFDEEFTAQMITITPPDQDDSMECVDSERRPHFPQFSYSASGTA
Method: as §1, §2, §3, §4, §5, §6, §7, §8, §9, §10

T1 sequence (P31751 whole entry): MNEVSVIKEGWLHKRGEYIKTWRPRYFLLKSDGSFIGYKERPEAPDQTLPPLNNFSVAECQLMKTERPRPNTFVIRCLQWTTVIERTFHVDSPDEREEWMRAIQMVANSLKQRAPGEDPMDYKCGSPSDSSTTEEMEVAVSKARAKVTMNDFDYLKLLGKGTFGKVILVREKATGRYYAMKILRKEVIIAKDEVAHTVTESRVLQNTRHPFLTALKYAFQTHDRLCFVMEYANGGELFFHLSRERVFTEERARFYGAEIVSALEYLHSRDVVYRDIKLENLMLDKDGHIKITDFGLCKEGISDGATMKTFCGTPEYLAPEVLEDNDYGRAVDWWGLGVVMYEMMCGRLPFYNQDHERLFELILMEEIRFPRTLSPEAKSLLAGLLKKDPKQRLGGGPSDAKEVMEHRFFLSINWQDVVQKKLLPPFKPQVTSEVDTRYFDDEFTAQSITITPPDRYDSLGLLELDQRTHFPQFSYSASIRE

Compound	IC50 (AKT2) [nM]	IC50 (AKT3) [nM]	IC50 (AKT1) [nM]
Cn1cnc2c3oc(-c4ccccc4)c(-c4ccc(C5(N)CCC5)cc4)c(=O)c3cc(Cl)c21 [Example 62, 7-[4-(1-Amino-cyclobutyl)-phenyl]-4-chloro-3-methyl-8-phenyl-3H-chromeno[7,8-d]imidazol-6-one hydrochloride]	≤ 1000	≤ 1000	≤ 1000
NC1(c2ccc(-c3c(-c4ccccc4)oc4c(ccn5c(=O)[nH]nc45)c3=O)cc2)CCC1 [Example 63, 7-[4-(1-Amino-cyclobutyl)-phenyl]-8-phenyl-2H-9-oxa-1,2,3a-triaza-cyclopenta[a]naphthalene-3,6-dione hydrochloride]	≤ 1000	≤ 1000	≤ 1000
Cn1nc2c3oc(-c4ccccc4)c(-c4ccc(C5(N)CCC5)cc4)c(=O)c3ccn2c1=O [Example 64, 7-[4-(1-Amino-cyclobutyl)-phenyl]-2-methyl-8-phenyl-2H-9-oxa-1,2,3a-triaza-cyclopenta[a]naphthalene-3,6-dione hydrochloride]	≤ 1000	≤ 1000	≤ 1000
NC1(c2ccc(-c3c(-c4ccccc4)oc4ccccc4c3=S)cc2)CCC1 [Example 65, 3-[4-(1-Amino-cyclobutyl)-phenyl]-2-phenyl-chromene-4-thione hydrochloride]	1000 to 10000	1000 to 10000	1000 to 10000
CON=c1c(-c2ccc(C3(N)CCC3)cc2)c(-c2ccccc2)oc2ccccc12 [Example 66, 3-[4-(1-Amino-cyclobutyl)-phenyl]-2-phenyl-chromen-4-one O-methyl-oxime]	1000 to 10000	> 10000	≤ 1000
NC1(c2ccc(-c3c(-c4ccccc4)oc4c(ccn5c(=O)[nH]nc45)c3=O)cn2)CCC1 [Example 69, 7-[6-(1-Amino-cyclobutyl)-pyridin-3-yl]-8-phenyl-2H-9-oxa-1,2,3a-triaza-cyclopenta[a]naphthalene-3,6-dione]	1000 to 10000	> 10000	≤ 1000
CC(C)(C#N)c1ccc(-c2c(-c3ccccc3)oc3c(ccn4c(=O)[nH]nc34)c2=O)cc1 [Example 70, 2-[4-(3,6-Dioxo-8-phenyl-2,6-dihydro-3H-9-oxa-1,2,3a-triaza-cyclopenta[a]naphthalen-7-yl)-phenyl]-2-methyl-propionitrile]	> 10000	> 10000	≤ 1000
Cn1ncc2ccc3c(=O)c(-c4ccc(C5(N)CCC5)nc4)c(-c4ccccc4)oc3c21 [Example 71, 7-[6-(1-Amino-cyclobutyl)-pyridin-3-yl]-1-methyl-8-phenyl-1H-9-oxa-1,2-diaza-cyclopenta[a]naphthalen-6-one hydrochloride]	> 10000	> 10000	≤ 1000
NC1(c2ccc(-c3c(-c4ccccc4)oc4c(-c5c[nH]nc5C(F)(F)F)cccc4c3=O)cc2)CCC1 [Example 76, 3-[4-(1-Amino-cyclobutyl)-phenyl]-2-phenyl-8-(3-trifluoromethyl-1H-pyrazol-4-yl)-chromen-4-one]	1000 to 10000	1000 to 10000	≤ 1000
NC1(c2ccc(-c3c(-c4ccccc4)oc4c(N5CCNC(=O)C5)cccc4c3=O)cc2)CCC1 [Example 77, 4-{3-[4-(1-Amino-cyclobutyl)-phenyl]-4-oxo-2-phenyl-4H-chromen-8-yl}-piperazin-2-one]	1000 to 10000	1000 to 10000	≤ 1000
COc1ccc2c(=O)c(-c3ccc(C4(N)CCC4)cc3)c(-c3ccccc3)oc2c1-c1cn[nH]c1 [Example 79, 3-[4-(1-Amino-cyclobutyl)-phenyl]-7-methoxy-2-phenyl-8-(1H-pyrazol-4-yl)-chromen-4-one]	≤ 1000	≤ 1000	≤ 1000
NC1(c2ccc(-c3c(-c4ccccc4)oc4c(-c5cn[nH]c5)nccc4c3=O)cc2)CCC1 [Example 80, 3-[4-(1-Amino-cyclobutyl)-phenyl]-2-phenyl-8-(1H-pyrazol-4-yl)-pyrano[2,3-c]pyridin-4-one hydrochloride]	≤ 1000	≤ 1000	≤ 1000
CCn1ncc2ccc3c(=O)c(-c4ccc(C5(N)CCC5)cc4)c(-c4ccccc4)oc3c21 [Example 81, 7-[4-(1-Amino-cyclobutyl)-phenyl]-1-ethyl-8-phenyl-1H-9-oxa-1,2-diaza-cyclopenta[a]naphthalen-6-one hydrochloride]	≤ 1000	1000 to 10000	≤ 1000
CCn1cc2ccc3c(=O)c(-c4ccc(C5(N)CCC5)cc4)c(-c4ccccc4)oc3c2n1 [Example 82, 7-[4-(1-Amino-cyclobutyl)-phenyl]-2-ethyl-8-phenyl-2H-9-oxa-1,2-diaza-cyclopenta[a]naphthalen-6-one hydrochloride]	≤ 1000	> 10000	≤ 1000
CC(C)n1ncc2ccc3c(=O)c(-c4ccc(C5(N)CCC5)cc4)c(-c4ccccc4)oc3c21 [Example 83, 7-[4-(1-Amino-cyclobutyl)-phenyl]-1-isopropyl-8-phenyl-1H-9-oxa-1,2-diaza-cyclopenta[a]naphthalen-6-one hydrochloride]	≤ 1000	1000 to 10000	≤ 1000

Results, then the molecule that gave them:

IC50 (AKT2) [nM]	IC50 (AKT3) [nM]	IC50 (AKT1) [nM]	Compound
≤ 1000	1000 to 10000	≤ 1000	Cn1ncc2c3oc(-c4ccccc4)c(-c4ccc(C5(N)CCC5)cc4)c(=O)c3ccc21 [Example 60, 3-[4-(1-Amino-cyclobutyl)-phenyl]-7-methyl-2-phenyl-7H-pyrano[2,3-e]indazol-4-one]
≤ 1000	1000 to 10000	≤ 1000	Cn1cc2c(ccc3c(=O)c(-c4ccc(C5(N)CCC5)cc4)c(-c4ccccc4)oc32)n1 [Example 61, 3-[4-(1-Amino-cyclobutyl)-phenyl]-8-methyl-2-phenyl-8H-pyrano[2,3-e]indazol-4-one]
> 10000	> 10000	≤ 1000	NC1(c2ccc(-c3c(-c4ccccc4)oc4c(Br)cccc4c3=O)cc2)COC1 [Example 67, 3-[4-(3-Amino-oxetan-3-yl)-phenyl]-8-bromo-2-phenyl-chromen-4-one]
1000 to 10000	> 10000	≤ 1000	NC1(c2ccc(-c3c(-c4ccccc4)oc4c(ccn5c(=O)[nH]nc45)c3=O)cc2)COC1 [Example 68, 7-[4-(3-Amino-oxetan-3-yl)-phenyl]-8-phenyl-2H-9-oxa-1,2,3a-triaza-cyclopenta[a]naphthalene-3,6-dione]
1000 to 10000	> 10000	≤ 1000	NC1(c2ccc(-c3c(-c4ccccc4)oc4c(N5CCOCC5)cccc4c3=O)cc2)CCC1 [Example 72, 3-[4-(1-Amino-cyclobutyl)-phenyl]-8-morpholin-4-yl-2-phenyl-chromen-4-one hydrochloride]
≤ 1000	1000 to 10000	≤ 1000	Cc1n[nH]cc1-c1cccc2c(=O)c(-c3ccc(C4(N)CCC4)cc3)c(-c3ccccc3)oc12 [Example 73, 3-[4-(1-Amino-cyclobutyl)-phenyl]-8-(3-methyl-1H-pyrazol-4-yl)-2-phenyl-chromen-4-one hydrochloride]
≤ 1000	1000 to 10000	≤ 1000	NC1(c2ccc(-c3c(-c4ccccc4)oc4c(-n5ccnc5)cccc4c3=O)cc2)CCC1 [Example 74, 3-[4-(1-Amino-cyclobutyl)-phenyl]-8-imidazol-1-yl-2-phenyl-chromen-4-one hydrochloride]
≤ 1000	1000 to 10000	≤ 1000	Cc1c(-c2cccc3c(=O)c(-c4ccc(C5(N)CCC5)cc4)c(-c4ccccc4)oc23)cnn1C [Example 75, 3-[4-(1-Amino-cyclobutyl)-phenyl]-8-(1,5-dimethyl-1H-pyrazol-4-yl)-2-phenyl-chromen-4-one hydrochloride]
1000 to 10000	1000 to 10000	1000 to 10000	Cc1noc(C)c1-c1cccc2c(=O)c(-c3ccc(C4(N)CCC4)cc3)c(-c3ccccc3)oc12 [Example 78, 3-[4-(1-Amino-cyclobutyl)-phenyl]-8-(3,5-dimethyl-isoxazol-4-yl)-2-phenyl-chromen-4-one]
